Reference: the SangsterLogP compilation

assay: not given; conditions: not given

SMILES | logP
O=C1C(=Cc2ccc(Cl)cc2)CCCc2ccccc21 | 5.1
O=C1C(=Cc2ccc(Br)cc2)CCCc2ccccc21 | 5.22
COc1ccc(C=C2CCCc3ccccc3C2=O)cc1 | 4.72
COc1ccccc1C=C1Cc2ccccc2C1=O | 4.01
CN(C)c1ccc(C=C2CCc3ccccc3C2=O)cc1 | 4.91
COc1cccc(C=C2Cc3ccccc3C2=O)c1 | 3.97
CN(C)c1ccc(C=C2CCCc3ccccc3C2=O)cc1 | 5.26
COc1cccc(/C=C2\CCc3ccccc3C2=O)c1 | 4.42
Cc1cccc(C=C2CCCc3ccccc3C2=O)c1 | 4.98
CN(C)c1ccc(C=C2Cc3ccccc3C2=O)cc1 | 4.5
O=C1C(=Cc2ccc([N+](=O)[O-])cc2)CCCc2ccccc21 | 4.15
O=C1C(=Cc2ccccc2Cl)CCCc2ccccc21 | 5.04
N#Cc1ccc(/C=C/C(=O)c2ccccc2)cc1 | 2.93
COc1ccc(C=C2CCc3ccccc3C2=O)cc1 | 4.32
O=C1C(=Cc2cccc([N+](=O)[O-])c2)CCCc2ccccc21 | 4.32
O=C1/C(=C\c2ccccc2)CCc2ccccc21 | 4.14
Cc1ccc(C=C2CCCc3ccccc3C2=O)cc1 | 5.1
COc1ccccc1C=CC(=O)c1ccccc1 | 3.99
COc1ccc(/C=C/C(=O)c2ccccc2)cc1 | 3.67
COc1ccccc1C=C1CCCc2ccccc2C1=O | 4.69

Results, then the compound that gave them:

logP | SMILES
5.35 | O=C1C(=Cc2cccc(Br)c2)CCCc2ccccc21
4.23 | CN(C)c1ccc(/C=C/C(=O)c2ccccc2)cc1
4.92 | Cc1ccccc1C=C1CCCc2ccccc2C1=O
4.07 | O=C1/C(=C/c2ccccc2[N+](=O)[O-])CCCc2ccccc21
4.48 | O=C1C(=Cc2ccccc2)CCCc2ccccc21
4.45 | O=C1C(=Cc2ccc(F)cc2)CCCc2ccccc21
5.04 | O=C1C(=Cc2ccccc2Br)CCCc2ccccc21
4.6 | O=C1C(=Cc2cccc(F)c2)CCCc2ccccc21
3.8 | COc1cccc(C=CC(=O)c2ccccc2)c1
3.91 | COc1ccc(C=C2Cc3ccccc3C2=O)cc1
4.43 | COc1ccccc1C=C1CCc2ccccc2C1=O

assay: method code SF-AS, from Krisztina, T.; Perjesi, P.; Vámos, J. (2001). Determination of logP for biologically active chalcones and cyclic chalcone analogs by RPTLC. Journal of Planar Chromatography - Modern TLC. 14, 42-46.; conditions: pH 7.4

logD | SMILES
3.66 | O=C1C(=Cc2ccccc2)Cc2ccccc21
3.62 | O=C(C=Cc1ccccc1)c1ccccc1
